The subject of assay [1] is U251cx43-216 cells. Nature of the assay: MTT cell viability assay. Particulars: Homo sapiens, 144 h.
The test system of assay [2] is U251N23 cells. Nature of the assay: MTT cell viability assay. Format: cell-based. As to conditions: Homo sapiens, 144 h, day 6 after treatment, U251N23 (control-transfected). On the procedure: In vitro viability was determined by the 3-(4,5-dimethylthiazol-2yl)-2,5-diphenyltetrazolium bromide (MTT) colorimetric assay as described in (Huang et al., Cancer Res. 55:5054-5062 (1995)). Cells (1×10^3) were plated in triplicate in 96 well microplates overnight and treated with 5 different concentrations of VP16, Tax and DOX, respectively. […] Absorbance values at 570 nm were plotted as a measure of the relative number of cells. […] Both methods gave the identical results.
(§1) Values at OD 570 reflect the relative number of viable cells.
A general note: Tetrazolium assays rely on reduction of a dye to a coloured formazan, in cell work by metabolically active cells.

The test system of assay [3] is U251cx43-216 cells. Nature of the assay: Clonogenicity (cell survival) assay. Format: cell-based, human. On the procedure:
(§2) The surviving cell fraction was determined by clonogenicity assay as previously described (Huang et al., J. Cell Biol. 133:211-220 (1996)). Cells were seeded at a density of 500 cells per 60 mm plate and incubated overnight and then treated with drugs; culture was then continued for 3 weeks. Clones were fixed in 4% formaldehyde-PBS and stained with Giemsa solution. Colonies containing more than 50 cells were counted and the fraction of surviving cells was calculated. The results represented the average of three separate experiments.
as §1

The subject of assay [4] is U251N23 cells. Nature of the assay: Clonogenicity (cell survival) assay. The class given is cell-based, human. The protocol: as §2, §1
For assay [5], the system named is T51B rat liver epithelial cells. Nature of the assay: Gap junction communication, Lucifer yellow dye transfer. The class given is cell-based. The protocol:
(§3) Gap junctional communication (GJC) was assayed by transfer of the fluorescent Lucifer yellow (LY) after single-cell micro-injection, as described previously (Huang et al., Cancer Res. 58:5089-5096 (1998)). Cells were observed under a fluorescence-inverted microscope after micro-injection at the given time points, and the number of neighboring cells labeled with fluorescent dye was recorded.
It was next determined whether cx43-mediated apoptosis was related to gap junctional communication (GJC). […] Since Lucifer yellow dye transfer may not accurately reflect the ability of intracellular substances to pass through gap junctions, apoptosis was examined in response to VP16 in the presence of α-Glycyrrhetinic acid (GA), which inhibits GJC (Davidson et al., Biochem. Biophys. Res. Commun. 134:29-36 (1986); Davidson and Baumgarten, J. Pharmacol. Exp. Ther. 266:1104-1107 (1988)). […] Consistent with previous studies, both cx43- and control-transfected cells poorly communicated each other as examined by Lucifer yellow dye transfer experiment. The effect of GA was not obvious due to poor GJC in untreated U251 cells. […] Thus, the difference in apoptosis is probably due to the presence of cx43 itself rather than GJC. Furthermore, cx43-transfected cells expressed only non-phosphorylated cx43 in both mock- and VP 16-treated cells. […]

The test system of assay [6] is cx43- or control-transfected cells. Nature of the assay: Apoptosis in response to VP16 in the presence of GA. The class given is cell-based, human. Particulars: cx43- and control-transfected cells. The source says: It was next determined whether cx43-mediated apoptosis was related to gap junctional communication (GJC). […] Since Lucifer yellow dye transfer may not accurately reflect the ability of intracellular substances to pass through gap junctions, apoptosis was examined in response to VP16 in the presence of α-Glycyrrhetinic acid (GA), which inhibits GJC (Davidson et al., Biochem. Biophys. Res. Commun. 134:29-36 (1986); Davidson and Baumgarten, J. Pharmacol. Exp. Ther. 266:1104-1107 (1988)). […] Consistent with previous studies, both cx43- and control-transfected cells poorly communicated each other as examined by Lucifer yellow dye transfer experiment. The effect of GA was not obvious due to poor GJC in untreated U251 cells. […] Thus, the difference in apoptosis is probably due to the presence of cx43 itself rather than GJC. Furthermore, cx43-transfected cells expressed only non-phosphorylated cx43 in both mock- and VP 16-treated cells. In contrast, when the same experimental procedure was used to detect cx43 in primary astrocytes and T51B cells, several phosphorylated isoforms were clearly observed (Huang et al., Cancer Res. 58:5089-5096 (1998)). It is generally believed that phosphorylated forms of cx43 are involved in GJC (Hossain et al., J. Cell Physiol. 174:66-77 (1998)). […]

Assay [7] relates to U251cx43-216 cells. Kind of assay: Gap junction communication, Lucifer yellow dye transfer. The class given is cell-based, human. As to conditions: U251cx43-216, GA 25 μM. The protocol:
as §3
(§4) It was next determined whether cx43-mediated apoptosis was related to gap junctional communication (GJC). […] Since Lucifer yellow dye transfer may not accurately reflect the ability of intracellular substances to pass through gap junctions, apoptosis was examined in response to VP16 in the presence of α-Glycyrrhetinic acid (GA), which inhibits GJC (Davidson et al., Biochem. Biophys. Res. Commun. 134:29-36 (1986); Davidson and Baumgarten, J. Pharmacol. Exp. Ther. 266:1104-1107 (1988)). […] Consistent with previous studies, both cx43- and control-transfected cells poorly communicated each other as examined by Lucifer yellow dye transfer experiment. The effect of GA was not obvious due to poor GJC in untreated U251 cells. […] Thus, the difference in apoptosis is probably due to the presence of cx43 itself rather than GJC. Furthermore, cx43-transfected cells expressed only non-phosphorylated cx43 in both mock- and VP 16-treated cells. In contrast, when the same experimental procedure was used to detect cx43 in primary astrocytes and T51B cells, several phosphorylated isoforms were clearly observed (Huang et al., Cancer Res. 58:5089-5096 (1998)). It is generally believed that phosphorylated forms of cx43 are involved in GJC (Hossain et al., J. Cell Physiol. 174:66-77 (1998)). Therefore it is likely that cx43-mediated apoptosis in response to VP16 is not related to its gap junctional communication effect.

The test system of assay [8] is U251N23 cells. Described as above. The class given is cell-based, human. Particulars: U251N23, GA 25 μM. The protocol: as §3, §4

In general, IC50 refers to the concentration that inhibits the measured activity by half. Higher therefore signals lower potency. Regarding `COc1cccc2c1C(=O)c1c(O)c3c(c(O)c1C2=O)C[C@@](O)(C(=O)CO)C[C@@H]3O[C@H]1C[C@H](N)[C@H](O)[C@H](C)O1` [DOX, Doxorubicin], the IC50 in the assay on U251cx43-216 cells [1] came out at 0.82 nM; with U251N23 cells [2], 1.77 nM. The “Colony formation (colonies counted)” value was 6 +/− 1 with U251cx43-216 cells [3] (U251cx43-216, 1 × 10^−9, 3 weeks); 2 +/− 3 in the assay with U251cx43-216 cells [3] (U251cx43-216, 4 × 10^−9, 3 weeks); 70 +/− 6 with U251cx43-216 cells [3] (U251cx43-216, 4 × 10^−10, 3 weeks); 15 +/− 5 with U251N23 cells [4] (U251N23, 1 × 10^−9, 3 weeks); 6 +/− 0 in the assay with U251N23 cells [4] (U251N23, 4 × 10^−9, 3 weeks); 147 +/− 14 with U251N23 cells [4] (U251N23, 4 × 10^−10, 3 weeks).

As for `CC1(C)[C@@H](O)CC[C@]2(C)[C@H]3C(=O)C=C4[C@@H]5C[C@@](C)(C(=O)O)CC[C@]5(C)CC[C@@]4(C)[C@]3(C)CC[C@@H]12` [GA, α-Glycyrrhetinic acid], the “effect on GJC” value in assay [5] (T51B cells) was “completely blocked GJC”. Moreover, the “No. of Fluorescent Neighboring cells after GA treatment” value in assay [5] (T51B, GA 25 μM, 5 min) is 0 +/− 0; with U251cx43-216 cells [7] (5 min), 0.6 +/− 1.3; in the assay with U251cx43-216 cells [7] (24 h), 0 +/− 0; with U251cx43-216 cells [7] (48 h) it was 0.6 +/− 1.1; with U251cx43-216 cells [7] (72 h), 0.1 +/− 0.3; with U251N23 cells [8] (5 min), 0.7 +/− 1.1. Further, the entries for the “No. of Fluorescent Neighboring cells after GA treatment” value in the assay with U251N23 cells [8] (24 h), with U251N23 cells [8] (48 h) and in the assay with U251N23 cells [8] (72 h) were 2.2 +/− 3.7, 0.9 +/− 1.9 and 2.4 +/− 4.1, respectively. Besides, in assay [6], the “alteration of apoptosis in response to VP16 in the presence of α-Glycyrrhetinic acid” value is on record as “No significant alteration of apoptosis”.
